Laboratory results taken from patent US20070208087A1, “Compounds, compositions and methods for the treatment of inflammatory diseases” (priority 2001, published 2007).
Values joined by “and” are separate entries in the source; they are usually repeats but may differ in a detail not shown here. Identical values can stand only once. Like-named read-outs stand apart in the source and are kept apart here.

Experiments:
Assay type in all cases: cell-based
[1] = test system: TNF-α release from microglia; assay: TNF-α release from LPS/IFNγ stimulated microglia, TNF-α ELISA (Example 11); conditions: 50 uM compound, TNF-α release, 10 ug LPS and 10 ng IFNγ, 24 hours
How it was run: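 Microglia pretreated 1 h with 50 μM bis-/tris-dihydroxyaryl compound, then stimulated with 10 μg/ml LPS + 10 ng/ml IFNγ for 24 h. Medium sampled, stored at −80°, diluted 1:50 and TNF-α measured by ELISA.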

[2] = test system: Microglial cells; assay: Dose response inhibition of NO release from microglia, 0.5-500 μM (Example 9); conditions: for inhibition at 0.5 µM / inhibition at 1 µM / inhibition at 100 µM / inhibition at 250 µM / inhibition at 500 µM / μM NO release / μM NO release (No LPS average subtracted) / % inhibition: 48 hours; for μM NO release / μM NO release (No LPS average subtracted): 3 replicates
How it was run: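 Cells seeded at 1×10^5 cells/ml and, after 48 h, stimulated with 10 ng/ml IFNγ plus 10 μg/ml LPS together with test compounds or L-NAME at 0.5–500 μM. NO release measured by Griess reaction after 48 h.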

[3] = test system: microglia; assay: Ranking of NO release inhibition (Example 12); conditions: Microglia, ranking table
From the text: The bis- and tris-dihydroxyaryl compounds were ranked in order of effectiveness for the inhibition of NO release as set out in Table 8.

[4] = test system: EOC 13.31 microglia cells; assay: Inhibition of NO release from microglia following 24 hours pretreatment (Example 10); conditions: for inhibition at 50 µM: Microglia
How it was run: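 Confluent EOC 13.31 cells pretreated 24 hours with 50 μM compound (from 10 mM DMSO stock), then stimulated with 10 μg/ml LPS plus 10 ng/ml IFNγ without media change. After a further 48 hours, NO release was measured by Griess Reaction.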

Structure (SMILES): Oc1ccc(CNCc2ccc(O)c(O)c2)cc1O [Compound 73, bis(3,4-dihydroxybenzyl)amine]
- % inhibition ([1]; individual replicates, 50 µM): −51.44% and −31.47% and −54.79%
- inhibition at 50 µM ([1]; Microglia, 24 h, read-out: Avg % Inhibition): -45.9%
- inhibition at 0.5 µM ([2]; Microglia, 48 h, dose 0.5 μM, NO release, LPS/IFNγ, read-out: Avg % Inhibition): 12.7%
- inhibition at 0.5 µM ([2]; Microglia, 48 h, dose 0.5 μM, individual replicates, NO release, LPS/IFNγ, read-out: % inhibition): 15.5%
- inhibition at 1 µM ([2]; Microglia, 48 h, dose 1 μM, NO release, LPS/IFNγ, read-out: Avg % Inhibition): 16.5%
- inhibition at 1 µM ([2]; Microglia, 48 h, dose 1 μM, individual replicates, NO release, LPS/IFNγ, read-out: % inhibition): 17.7%
- inhibition at 5 µM ([2]; Microglia, 48 h, dose 5 μM, NO release, LPS/IFNγ): 1.5%
- inhibition at 10 µM ([2]; Microglia, 48 h, dose 10 μM, NO release, LPS/IFNγ): 1.75%
- inhibition at 25 µM ([2]; Microglia, 48 h, dose 25 μM, NO release, LPS/IFNγ): 0.75%
- inhibition at 50 µM ([2]; Microglia, 48 h, dose 50 μM, NO release, LPS/IFNγ): 0.25%
- inhibition at 100 µM ([2]; Microglia, 48 h, dose 100 μM, NO release, LPS/IFNγ, read-out: Avg % Inhibition): 33%
- inhibition at 100 µM ([2]; Microglia, 48 h, dose 100 μM, individual replicates, NO release, LPS/IFNγ, read-out: % inhibition): 31.2%
- inhibition at 250 µM ([2]; Microglia, 48 h, dose 250 μM, NO release, LPS/IFNγ, read-out: Avg % Inhibition): 45.3%
- inhibition at 250 µM ([2]; Microglia, 48 h, dose 250 μM, individual replicates, NO release, LPS/IFNγ, read-out: % inhibition): 46.7%
- inhibition at 500 µM ([2]; Microglia, 48 h, dose 500 μM, NO release, LPS/IFNγ, read-out: Avg % Inhibition): 72.3%
- inhibition at 500 µM ([2]; Microglia, 48 h, dose 500 μM, individual replicates, NO release, LPS/IFNγ, read-out: % inhibition): 72.6%
- inhibition at 500 µM ([2]; Microglia, 48 h, highest concentration tested (500 μM), read-out: inhibited NO release by): 72%
- μM NO release ([2]; dose 0.5 μM, LPS/IFNγ): 17.361 µM and 18.194 µM and 18.056 µM
- μM NO release (No LPS average subtracted) ([2]; dose 0.5 μM, LPS/IFNγ): 15.66 µM and 16.49 µM and 16.36 µM
- % inhibition ([2]; dose 0.5 μM, individual replicates, NO release, LPS/IFNγ): 10.99% and 11.74%
- μM NO release ([2]; dose 1 μM, LPS/IFNγ): 16.944 µM and 16.806 µM and 17.778 µM
- μM NO release (No LPS average subtracted) ([2]; dose 1 μM, LPS/IFNγ): 15.25 µM and 15.11 µM and 16.08 µM
- % inhibition ([2]; dose 1 μM, individual replicates, NO release, LPS/IFNγ): 18.49% and 13.25%
- μM NO release ([2]; dose 5 μM, LPS/IFNγ): 20.000 µM and 19.583 µM and 20.278 µM
- μM NO release (No LPS average subtracted) ([2]; dose 5 μM, LPS/IFNγ): 18.30 µM and 17.88 µM and 18.58 µM
- % inhibition ([2]; dose 5 μM, individual replicates, NO release, LPS/IFNγ): 1.25% and 3.50% and −0.25%
- μM NO release ([2]; dose 10 μM, LPS/IFNγ): 18.889 μM and 20.417 μM (2×)
- μM NO release (No LPS average subtracted) ([2]; dose 10 μM, LPS/IFNγ): 17.19 μM and 18.72 μM (2×)
- % inhibition ([2]; dose 10 μM, individual replicates, NO release, LPS/IFNγ): 7.24% and −1.00% (2×)
- μM NO release ([2]; dose 25 μM, LPS/IFNγ): 19.167 µM and 20.139 µM and 20.972 µM
- μM NO release (No LPS average subtracted) ([2]; dose 25 μM, LPS/IFNγ): 17.47 µM and 18.44 µM and 19.27 µM
- % inhibition ([2]; dose 25 μM, individual replicates, NO release, LPS/IFNγ): 5.75% and 0.50% and −4.00%
- μM NO release ([2]; dose 50 μM, LPS/IFNγ): 19.444 µM and 19.861 µM and 21.250 µM
- μM NO release (No LPS average subtracted) ([2]; dose 50 μM, LPS/IFNγ): 17.74 µM and 18.16 µM and 19.55 µM
- % inhibition ([2]; dose 50 μM, individual replicates, NO release, LPS/IFNγ): 4.25% and 2.00% and −5.50%
- μM NO release ([2]; dose 100 μM, LPS/IFNγ): 14.444 µM and 13.056 µM and 14.861 µM
- μM NO release (No LPS average subtracted) ([2]; dose 100 μM, LPS/IFNγ): 12.74 µM and 11.36 µM and 13.16 µM
- % inhibition ([2]; dose 100 μM, individual replicates, NO release, LPS/IFNγ): 38.72% and 28.98%
- μM NO release ([2]; dose 250 μM, LPS/IFNγ): 11.569 µM and 10.904 µM and 13.056 µM
- μM NO release (No LPS average subtracted) ([2]; dose 250 μM, LPS/IFNγ): 9.87 µM and 9.20 µM and 11.36 µM
- % inhibition ([2]; dose 250 μM, individual replicates, NO release, LPS/IFNγ): 50.33% and 38.72%
- μM NO release ([2]; dose 500 μM, LPS/IFNγ): 6.782 µM and 6.516 µM and 7.181 µM
- μM NO release (No LPS average subtracted) ([2]; dose 500 μM, LPS/IFNγ): 5.08 µM and 4.82 µM and 5.48 µM
- % inhibition ([2]; dose 500 μM, individual replicates, NO release, LPS/IFNγ): 74.01% and 70.42%
- inhibition at 50 µM [3]: 2%
- μM NO release ([4]; 50 uM pretreatment 24 hours, then LPS/IFNγ 48 hours, single replicates): 0.000 µM
- inhibition at 50 µM ([4]; 50 uM pretreatment 24 hours, then LPS/IFNγ 48 hours, read-out: Avg % Inhibition): 100%
- inhibition at 50 µM ([4]; 50 uM pretreatment 24 hours, then LPS/IFNγ 48 hours, single replicates, read-out: % inhibition): 100%
- inhibition at 50 µM ([4]; 50 μM pretreatment, read-out: inhibition of NO release following pretreatment): > 75%
